Experimental data: patent publication US20240009201A1, “CYP11B2 BETA HYDROXYLASE INHIBITORS FOR HYPERTENSION” (MINERALYS THERAPEUTICS, INC., priority 2020, published 2024)
Counter-ions that a name gives are not always drawn.

Legend:
Type in all cases: in vivo
CYP11B2 = target: T1, CYP11B2 (Mus musculus, UniProt P15539); test: Radio-telemetry blood pressure in low renin hypertension animal model (Ay mice); details: 3 mg/kg/day via mini-osmotic pump, 7 days, FIG. 14
T1 construct: from tissue; host or cells: living mice (endogenous enzyme); obese AY mice, Balb/C mice (Jackson Labs #000651)
T1 sequence (P15539 25-500): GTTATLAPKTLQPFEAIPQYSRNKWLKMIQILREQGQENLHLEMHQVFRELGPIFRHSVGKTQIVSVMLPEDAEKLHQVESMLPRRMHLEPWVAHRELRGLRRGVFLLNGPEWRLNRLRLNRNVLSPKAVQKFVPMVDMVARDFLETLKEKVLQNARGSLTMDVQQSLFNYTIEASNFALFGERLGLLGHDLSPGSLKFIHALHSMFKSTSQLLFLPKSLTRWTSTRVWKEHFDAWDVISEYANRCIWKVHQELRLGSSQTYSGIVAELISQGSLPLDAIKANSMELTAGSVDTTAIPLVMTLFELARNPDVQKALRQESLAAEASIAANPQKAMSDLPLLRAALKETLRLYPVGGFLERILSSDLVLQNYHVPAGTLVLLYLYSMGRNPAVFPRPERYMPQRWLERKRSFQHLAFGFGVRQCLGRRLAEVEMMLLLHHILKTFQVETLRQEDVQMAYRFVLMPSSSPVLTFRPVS
Description: Purpose: To determine whether CYP11B2 blockade (via aldosterone synthase inhibition) improves cardiovascular function in an animal model for low renin hypertension.
Animal Model: All experiments were conducted in 12-16-week-old obese AY female mice.
Telemetry Protocol: The telemetry protocol is illustrated in FIG. 13.
Treatment Protocol: Male and female Balb/C mice (Jackson Labs, Bar Harbor, ME, Catalog #000651) at 10 weeks of age were utilized for all studies. Mice were implanted with indwelling telemeters (carotid catheter) (DSI© Model #PA-C10, New Brighton, MN) under isoflurane anesthesia as previously described. Following a 7-day recovery period baseline BP measurements were consciously recorded for 7 days while mice were on normal salt diet (NS) (0.2% NaCl, Teklad #2918, Envigo, United Kingdom). Mice were then treated with the test article (compound of formula (A), LCI699 or CIN-107, calculated to deliver 3 mg/kg/day) infused via an implanted mini-osmotic pump for an additional 7 days.
Blood pressure measurement: For each protocol described in FIG. 13, 12 mice were used to record systolic, diastolic, mean arterial pressure heart rate and activity via radio-telemetry. Telemetry transmitters were implanted in the carotid artery at 12 weeks of age. After 2 weeks of recovery from surgery, baseline blood pressure was recorded for 7 consecutive days. Animals were then submitted to the treatment (compound of formula (A) HBr/LCI/CIN).
Quantification of the effects of compound of formula (A) HBr, LCI, CIN on the degree of RAAS activation: Blood was collected from all the treated mice to investigate the effects of the aldosterone synthase inhibitors on plasma aldosterone, Angiotensin II and indices of RAS activation via LC-MS/MS.

aldosterone synthase [1] = target: T2, aldosterone synthase (Homo sapiens, UniProt P19099); test: Single ascending dose (SAD) study
T2 construct: from tissue; host or cells: living human subjects (endogenous adrenal enzyme)
T2 sequence (P19099 25-503): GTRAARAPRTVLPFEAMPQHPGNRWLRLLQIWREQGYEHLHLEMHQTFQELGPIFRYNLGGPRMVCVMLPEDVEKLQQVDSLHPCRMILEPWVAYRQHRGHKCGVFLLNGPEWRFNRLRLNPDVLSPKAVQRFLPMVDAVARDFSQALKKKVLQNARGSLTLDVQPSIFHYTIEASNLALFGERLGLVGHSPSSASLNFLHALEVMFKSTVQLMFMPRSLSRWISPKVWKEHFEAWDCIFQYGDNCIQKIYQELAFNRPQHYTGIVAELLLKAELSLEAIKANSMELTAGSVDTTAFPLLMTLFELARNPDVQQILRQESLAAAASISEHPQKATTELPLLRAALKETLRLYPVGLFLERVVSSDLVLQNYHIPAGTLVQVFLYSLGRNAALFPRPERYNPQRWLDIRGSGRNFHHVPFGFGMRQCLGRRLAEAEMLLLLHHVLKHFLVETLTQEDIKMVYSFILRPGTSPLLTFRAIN
Description: (§1) Single Ascending Dose (SAD) and Multiple Ascending Dose (MAD) Study
(§2) A randomized, double-blinded, placebo-controlled study was conducted in which 116 patients were randomized and 87 received the compound of Formula A in the form of an HBr salt.
Exposure above about 3-4 times the inhibition constant (Ki) was associated with duration of aldosterone suppression (FIG. 4).

aldosterone synthase [2] = target: T2, aldosterone synthase; test: Multiple ascending dose (MAD) study
Description: as §1, §2

aldosterone synthase [3] = target: T2, aldosterone synthase; test: Randomized, double-blinded, placebo-controlled SAD and MAD study (overall findings)
Text: Aldosterone is produced by an aldosterone synthase, encoded by the gene CYP11B2. Aldosterone synthase catalyzes the final 3 steps in aldosterone synthesis, sequentially (1) from 11-deoxycorticosterone (11-DOC) to corticosterone, (2) from corticosterone to 18-OH-corticosterone, and (3) from 18-OH-corticosterone to aldosterone. […] 11β-hydroxylase catalyzes the conversion of 11-deoxycortisol to cortisol, and 11-deoxycorticosterone (11-DOC) to corticosterone.
Because 11-DOC is a substrate for both CYP11B1 and CYP11B2, use of a selective aldosterone synthase inhibitor which preserves the activity of CYP11B1 is important for preventing accumulation of the precursor 11-DOC.
as §1, §2

`CCC(=O)N[C@@H]1CCCc2c(-c3ccc4c(c3)CCC(=O)N4C)cncc21` [CIN-107] was tested. Which “mean arterial blood pressure (MAP)” value (CYP11B2) did it give?
Its value is “reduced MAP to a similar degree and to a value comparable to that seen in control mice”.

For `CC(=O)N[C@H]1CC[C@H](NC(=O)CN2CCN(c3nncc(-c4ccc(C)cc4)n3)CC2)CC1` [Compound A HBr, N-[trans-4-(acetylamino)cyclohexyl]-2-{4-[5-(4-methylphenyl)-1,2,4-triazin-3-yl]piperazin-1-yl}acetamide monohydrobromide], which serum cortisol (aldosterone synthase [1]; FIG. 2 (AUC-24)) is on record?
The serum cortisol was “no evidence of dose-dependent reduction in serum cortisol”.

What about the “exposure associated with duration of aldosterone suppression” value (aldosterone synthase [1]; FIG. 4 (Cpu/Ki)) of the same compound?
The value was 3-4 times the inhibition constant (Ki).

And the “duration of maximum aldosterone suppression” value (aldosterone synthase [1]; FIG. 5)?
Its value is “dose-dependent increase”.

What about the “reduction of serum aldosterone” value (aldosterone synthase [1]; dose of 50 mg, FIG. 1 (AUC-24)) of the same compound?
Its value is 50%.

And the 11-DOC level (aldosterone synthase [2]; 360 mg dose level, FIG. 7)?
The 11-DOC level was “Accumulation of 11-DOC”.

And the “serum aldosterone during the washout phase” value (aldosterone synthase [2]; 360 mg dose, FIG. 6)?
Its value is “overshoot in serum aldosterone”.

What about the “Plasma Renin Activity (PRA)” value (aldosterone synthase [2]; FIG. 9) of the same compound?
Its value is “dose-dependent increase”.

What about the “dose giving 50% of maximum increase in Plasma Renin Activity (PRA)” value (aldosterone synthase [2]; FIG. 9) of the same compound?
The value was 40 mg.

What about the “benefits on renal tubular sodium excretion” value (aldosterone synthase [2]; FIG. 12) of the same compound?
Its value is “seen at lower doses than are required for stimulation of renin and accumulation of 11-DOC”.

And the “serum K+” value (aldosterone synthase [2]; all doses tested, FIG. 10)?
The value was “physiological, non-adverse, increase in K^+”.

What about the “adrenocorticotropic hormone (ACTH)-stimulated aldosterone secretion” value (aldosterone synthase [2]; all doses tested, FIG. 11) of the same compound?
Its value is “suppression of adrenocorticotropic hormone (ACTH)-stimulated aldosterone secretion”.

And the “dose-effect on duration of maximum aldosterone suppression” value (aldosterone synthase [2]; day 7, FIG. 8)?
The value was “consistent with the SAD study”.

And the drug accumulation (aldosterone synthase [2]; multiple dosing)?
The drug accumulation was “little drug accumulation”.

And the “clinical laboratory, vital signs, ECGs or physical examination” value (aldosterone synthase [3]; SAD/MAD study)?
Its value is “No clinically significant findings”.

What about the “deaths or serious adverse events (SAEs)” value (aldosterone synthase [3]; SAD/MAD study) of the same compound?
Its value is “No deaths or serious adverse events (SAEs) occurred”.

What about the “effect on cortisol levels” value (aldosterone synthase [3]; SAD/MAD study) of the same compound?
The value was “no effect on cortisol levels”.

What about the hyperkalemia (aldosterone synthase [3]; SAD/MAD study) of the same compound?
Its hyperkalemia is “No hyperkalemia was noted”.

And the plasma aldosterone (aldosterone synthase [3]; SAD/MAD study, 87 received the compound)?
The plasma aldosterone was “rapid and durable reduction/suppression of plasma aldosterone”.

What about the “adverse events (AEs)” value (aldosterone synthase [3]; compound groups vs placebo groups) of the same compound?
Its value is “comparable between the groups receiving the compound and placebo groups”.

And the “mean arterial blood pressure (MAP)” value (CYP11B2)?
The value was “reduced MAP to a similar degree and to a value comparable to that seen in control mice”.

How did the “mean arterial blood pressure (MAP)” value (CYP11B2) turn out when `N#Cc1ccc([C@H]2CCc3cncn32)c(F)c1` [LCI699] was run?
Its value is “reduced MAP to a similar degree and to a value comparable to that seen in control mice”.

`CC(=O)N[C@H]1CC[C@H](NC(=O)CN2CCN(c3nncc(-c4ccc(C)cc4)n3)CC2)CC1` [compound of Formula (A), N-[trans-4-(acetylamino)cyclohexyl]-2-{4-[5-(4-methylphenyl)-1,2,4-triazin-3-yl]piperazin-1-yl}acetamide] was tested. Which “dose range of aldosterone suppression without increase in 11-DOC or change in cortisol production (selectivity)” value (aldosterone synthase [3]; in vivo) did it give?
The value was “wide does range at which aldosterone is suppressed without an increase in 11-DOC or change in cortisol production”.
